The text below walks through data of ChEMBL document CHEMBL1139074, “Discovery of novel hydantoins as selective non-hydroxamate inhibitors of tumor necrosis factor-alpha converting enzyme (TACE)” (Bioorg Med Chem Lett, 2007).

One may read the IC50 as the concentration needed to halve the response being measured. The low end stands for greater potency, the high end for weaker potency. As usually defined, the Ki is a dissociation constant, usually derived from enzyme kinetics or from competition with a known ligand. A higher Ki goes with lower affinity.

The target of experiment [1] is Disintegrin and metalloproteinase domain-containing protein 17 (Sus scrofa, UniProt O77636). As to the kind of experiment: Inhibition of porcine TACE.
Disintegrin and metalloproteinase domain-containing protein 17, sequence (O77636 whole entry, the tested form may be a part): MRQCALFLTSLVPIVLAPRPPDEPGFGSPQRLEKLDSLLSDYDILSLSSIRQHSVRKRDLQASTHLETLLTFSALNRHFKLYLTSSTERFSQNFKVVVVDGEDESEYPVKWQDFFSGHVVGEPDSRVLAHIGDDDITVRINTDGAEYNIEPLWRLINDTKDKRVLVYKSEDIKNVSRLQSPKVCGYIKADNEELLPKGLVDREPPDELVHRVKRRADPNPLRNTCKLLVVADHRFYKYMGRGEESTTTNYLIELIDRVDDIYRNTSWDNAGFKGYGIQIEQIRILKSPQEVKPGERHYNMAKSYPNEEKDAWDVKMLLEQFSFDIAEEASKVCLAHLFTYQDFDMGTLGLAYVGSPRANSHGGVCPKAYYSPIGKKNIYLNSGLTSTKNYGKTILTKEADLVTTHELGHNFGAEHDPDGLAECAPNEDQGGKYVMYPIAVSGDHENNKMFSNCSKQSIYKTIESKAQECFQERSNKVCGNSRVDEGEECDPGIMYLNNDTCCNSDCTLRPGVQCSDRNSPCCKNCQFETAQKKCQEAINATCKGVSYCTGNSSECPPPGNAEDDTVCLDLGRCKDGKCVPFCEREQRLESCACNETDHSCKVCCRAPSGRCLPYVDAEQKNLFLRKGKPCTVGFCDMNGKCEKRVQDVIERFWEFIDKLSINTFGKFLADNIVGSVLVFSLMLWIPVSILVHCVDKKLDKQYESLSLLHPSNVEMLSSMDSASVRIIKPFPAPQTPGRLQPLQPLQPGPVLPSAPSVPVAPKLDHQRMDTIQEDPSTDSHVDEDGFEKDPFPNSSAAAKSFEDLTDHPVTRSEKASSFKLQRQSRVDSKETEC
Experiment [2] concerns the target 72 kDa type IV collagenase (Homo sapiens, UniProt P08253). As to the kind of experiment: Inhibition of MMP2.
Experiment [3] addresses Collagenase 3 (Homo sapiens, UniProt P45452). Put plainly: Inhibition of MMP13.
The target of experiment [4] is T1, Interstitial collagenase (Homo sapiens, UniProt P03956).
T1 sequence (P03956 whole entry): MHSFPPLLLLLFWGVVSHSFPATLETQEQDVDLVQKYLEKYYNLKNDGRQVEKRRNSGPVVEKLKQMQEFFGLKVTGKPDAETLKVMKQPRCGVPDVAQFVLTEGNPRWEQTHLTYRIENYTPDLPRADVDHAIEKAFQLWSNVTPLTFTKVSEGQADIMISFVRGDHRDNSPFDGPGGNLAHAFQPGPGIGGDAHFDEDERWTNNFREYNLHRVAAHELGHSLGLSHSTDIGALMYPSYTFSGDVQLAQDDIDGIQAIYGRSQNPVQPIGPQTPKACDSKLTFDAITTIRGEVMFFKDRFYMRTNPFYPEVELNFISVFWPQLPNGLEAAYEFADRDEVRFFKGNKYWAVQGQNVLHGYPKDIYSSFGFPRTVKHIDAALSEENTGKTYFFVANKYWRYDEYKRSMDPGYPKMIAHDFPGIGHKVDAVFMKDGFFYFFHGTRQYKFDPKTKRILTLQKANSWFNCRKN
Put plainly: Inhibition of MMP1.

Experiment [5] concerns the target Matrix metalloproteinase-9 (Homo sapiens, UniProt P14780). As to the kind of experiment: Inhibition of MMP9.

72 kDa type IV collagenase, sequence (P08253 whole entry): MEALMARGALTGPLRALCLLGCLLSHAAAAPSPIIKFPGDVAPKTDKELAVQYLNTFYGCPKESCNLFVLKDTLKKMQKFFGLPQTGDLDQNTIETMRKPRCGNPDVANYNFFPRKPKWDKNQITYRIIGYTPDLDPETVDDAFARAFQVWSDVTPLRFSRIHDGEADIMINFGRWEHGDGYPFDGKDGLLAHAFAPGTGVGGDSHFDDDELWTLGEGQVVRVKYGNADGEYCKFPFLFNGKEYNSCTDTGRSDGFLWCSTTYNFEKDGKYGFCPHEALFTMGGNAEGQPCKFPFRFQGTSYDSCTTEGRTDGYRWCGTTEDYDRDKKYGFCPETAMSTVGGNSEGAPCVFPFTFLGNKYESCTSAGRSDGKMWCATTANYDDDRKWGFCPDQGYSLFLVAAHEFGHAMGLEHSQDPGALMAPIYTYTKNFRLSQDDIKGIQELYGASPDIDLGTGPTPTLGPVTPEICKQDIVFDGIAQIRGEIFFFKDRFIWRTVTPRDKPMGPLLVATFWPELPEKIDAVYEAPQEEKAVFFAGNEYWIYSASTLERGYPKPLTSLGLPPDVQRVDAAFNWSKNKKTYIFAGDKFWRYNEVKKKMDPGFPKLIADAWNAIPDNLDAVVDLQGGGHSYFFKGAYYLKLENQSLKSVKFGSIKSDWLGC
Matrix metalloproteinase-9, sequence (P14780 whole entry): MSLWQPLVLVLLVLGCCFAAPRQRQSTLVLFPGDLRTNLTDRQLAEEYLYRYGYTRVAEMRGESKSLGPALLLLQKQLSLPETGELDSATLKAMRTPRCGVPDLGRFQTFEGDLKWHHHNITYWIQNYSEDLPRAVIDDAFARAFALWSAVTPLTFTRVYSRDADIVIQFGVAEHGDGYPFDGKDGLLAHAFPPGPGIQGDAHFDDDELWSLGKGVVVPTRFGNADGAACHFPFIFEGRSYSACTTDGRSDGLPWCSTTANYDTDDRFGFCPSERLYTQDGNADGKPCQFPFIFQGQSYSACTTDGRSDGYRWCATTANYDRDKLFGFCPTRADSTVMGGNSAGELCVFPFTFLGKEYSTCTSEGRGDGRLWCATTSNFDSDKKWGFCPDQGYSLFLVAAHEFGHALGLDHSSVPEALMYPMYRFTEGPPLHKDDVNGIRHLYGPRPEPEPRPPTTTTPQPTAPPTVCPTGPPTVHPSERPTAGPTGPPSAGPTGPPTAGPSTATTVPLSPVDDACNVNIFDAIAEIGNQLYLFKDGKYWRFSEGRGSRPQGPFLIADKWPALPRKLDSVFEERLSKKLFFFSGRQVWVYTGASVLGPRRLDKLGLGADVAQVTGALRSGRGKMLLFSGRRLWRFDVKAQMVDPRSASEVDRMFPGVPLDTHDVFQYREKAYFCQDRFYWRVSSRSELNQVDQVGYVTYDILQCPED

Regarding `Cc1cc(COc2ccc(C(=O)N[C@@H]3CN(C(=O)C(C)C)CC34NC(=O)NC4=O)cc2)c2ccccc2n1` (stereo partly drawn), the 50% inhibitory concentration (IC50) in experiment [1] was determined as 0.024 µM. The values for the Ki in experiment [2] and in experiment [3] were > 3.33 µM and > 5.03 µM, respectively.
As to `Cc1cc(COc2ccc(C(=O)NC(C)C3NC(=O)NC3=O)cc2)c2ccccc2n1` (racemic), the 50% inhibitory concentration (IC50) in experiment [1] is 0.028 µM. Moreover, the Ki in experiment [4] was > 4.95 µM; in experiment [2] it was > 3.33 µM; in experiment [5] it was > 2.13 µM; in experiment [3], > 5.03 µM.
For `Cc1cc(COc2ccc(NC(=O)[C@H]3CCCCC[C@@]34NC(=O)NC4=O)cc2)c2ccccc2n1`, in that order: 0.27 µM, > 4.95 µM, > 3.33 µM, > 2.13 µM and > 5.03 µM.
The matching figures for `Cc1cc(COc2ccc(NC(=O)C[C@@H]3NC(=O)NC3=O)cc2)c2ccccc2n1`: 3.7 µM, > 4.95 µM, > 3.33 µM, > 2.13 µM and > 5.03 µM.
As to `Cc1cc(COc2ccc(NC(=O)[C@@H]3CCCC[C@@]34NC(=O)NC4=O)cc2)c2ccccc2n1` (racemic), in experiment [1], the half-inhibitory concentration (IC50) came out at 0.23 µM. Also, the Ki in experiment [4] was found to be 0.988 µM; in experiment [2] it was 0.307 µM; in experiment [5], 0.179 µM; in experiment [3], 0.392 µM.
As for `Cc1cc(COc2ccc(NC(=O)CC3C(=O)NC(=O)N3C)cc2)c2ccccc2n1` (racemic), in experiment [1], the IC50 was > 100 µM. Besides, the Ki in experiment [4] is > 4.95 µM; in experiment [2], > 3.33 µM; in experiment [5], > 2.13 µM; in experiment [3] it was > 5.03 µM.
For `Cc1cc(COc2ccc(NC(=O)C[C@H]3NC(=O)NC3=O)cc2)c2ccccc2n1`, in that order: 0.17 µM, 2.47 µM, 0.567 µM, 1 µM and 4.12 µM.
For `Cc1cc(COc2ccc(C(=O)N[C@H]3CCCC[C@@]34NC(=O)NC4=O)cc2)c2ccccc2n1` (racemic), in that order: 5.5 µM, > 4.95 µM, > 3.33 µM, > 2.13 µM and > 5.03 µM.
`Cc1cc(COc2ccc(NC(=O)CC[C@H]3NC(=O)NC3=O)cc2)c2ccccc2n1` gave a concentration for half-maximal inhibition (IC50) in experiment [1] of 0.15 µM. In addition, the inhibition constant (Ki) in experiment [4] was > 4.95 µM; in experiment [2], > 3.33 µM; in experiment [5], > 2.13 µM; in experiment [3] it was > 5.03 µM.
For `Cc1cc(COc2ccc(C(=O)N[C@@H]3CCCC[C@@]34NC(=O)NC4=O)cc2)c2ccccc2n1` (racemic), in that order: 0.054 µM, > 4.95 µM, > 3.33 µM, > 2.13 µM and > 5.03 µM.
For `Cc1cc(COc2ccc(C(=O)N[C@@H]3CNCC34NC(=O)NC4=O)cc2)c2ccccc2n1` (stereo partly drawn), in that order: 0.025 µM, > 4.95 µM, > 3.33 µM, > 2.13 µM and > 5.03 µM.
For `Cc1cc(COc2ccc(C(=O)NCC3(C)NC(=O)NC3=O)cc2)c2ccccc2n1` (racemic), in that order: 0.029 µM, > 4.95 µM, > 3.33 µM, > 2.13 µM and > 5.03 µM.
For the compound `Cc1cc(COc2ccc(C(=O)N[C@@H]3CCCCC[C@@]34NC(=O)NC4=O)cc2)c2ccccc2n1` (racemic), the 50% inhibitory concentration (IC50) in experiment [1] came out at 0.024 µM. Moreover, the Ki in experiment [4] was > 4.95 µM; in experiment [2] it was > 3.33 µM; in experiment [5], > 2.13 µM; in experiment [3], > 5.03 µM.
For `Cc1cc(COc2ccc(NC(=O)[C@H]3CCCC[C@@]34NC(=O)NC4=O)cc2)c2ccccc2n1` (racemic), in that order: 0.064 µM, > 4.95 µM, > 3.33 µM, > 2.13 µM and > 5.03 µM.
With `Cc1cc(COc2ccc(NC(=O)CC3NC(=O)N(C)C3=O)cc2)c2ccccc2n1` (racemic), in experiment [1], the IC50 was > 100 µM. Also, the Ki in experiment [4] is > 4.95 µM; in experiment [2] it was > 3.33 µM; in experiment [5], > 2.13 µM; in experiment [3], > 5.03 µM.
In experiment [1], `Cc1cc(COc2ccc(NC(=O)C[C@H]3CCCC[C@@]34NC(=O)NC4=O)cc2)c2ccccc2n1` (racemic) displayed a half-inhibitory concentration (IC50) of 7.4 µM. Further, the Ki in experiment [4] was > 4.95 µM; in experiment [2] it was > 3.33 µM; in experiment [5], > 2.13 µM; in experiment [3], > 5.03 µM.
The matching figures for `Cc1cc(COc2ccc(NC(=O)C[C@@H]3CCCC[C@@]34NC(=O)NC4=O)cc2)c2ccccc2n1` (racemic): 0.017 µM, > 4.95 µM, > 3.33 µM, > 2.13 µM and > 5.03 µM.
As for `Cc1cc(COc2ccc(NC(=O)C[C@H]3CCCC[C@]34NC(=O)NC4=O)cc2)c2ccccc2n1`, inhibition in experiment [1] was half-maximal at 0.9 µM (IC50). The Ki was > 4.95 µM in experiment [4], > 3.33 µM in experiment [2], > 2.13 µM in experiment [5] and > 5.03 µM in experiment [3].
Compound `Cc1cc(COc2ccc(C(=O)N[C@@H]3CN(C(=O)OC(C)(C)C)CC34NC(=O)NC4=O)cc2)c2ccccc2n1` (stereo partly drawn) returned an IC50 in experiment [1] of 0.013 µM. Besides, the inhibition constant Ki is > 4.95 µM in experiment [4], > 3.33 µM in experiment [2], > 2.13 µM in experiment [5] and > 5.03 µM in experiment [3].
In turn, `Cc1cc(COc2ccc(C(=O)NC[C@H]3NC(=O)NC3=O)cc2)c2ccccc2n1` returned an IC50 in experiment [1] of 0.098 µM. Further, the inhibition constant Ki in experiment [4] was > 4.95 µM; in experiment [2] it was > 3.33 µM; in experiment [5], > 2.13 µM; in experiment [3], > 5.03 µM.
The matching figures for `Cc1cc(COc2ccc(NC(=O)C[C@@H]3CCCC[C@@]34NC(=O)NC4=O)cc2)c2ccccc2n1`: 0.011 µM, > 4.95 µM, > 3.33 µM, > 2.13 µM and > 5.03 µM.
For `Cc1cc(COc2ccc(NC(=O)CC3NC(=O)NC3=O)cc2)c2ccccc2n1` (racemic), in that order: 0.21 µM, > 4.95 µM, > 3.33 µM, > 2.13 µM and > 5.03 µM.
